According to article PMC9241644, “Evaluation of Novel Quorum Sensing Inhibitors Targeting Auto-Inducer 2 (AI-2) for the Control of Avian Pathogenic Escherichia coli Infections in Chickens” (Microbiology Spectrum, 2022):

Columns and labels:
[1] = system: Rif^R APEC O78; experiment: Optimization of therapeutic dose of QSI-5 in drinking water, APEC-infected chickens; type: in vivo, Escherichia coli; conditions: for mortality reduction compared with PC group: PC normalized to 100%; for Mortality rate % (Nr.) / Average lesion severity, Lung / Average lesion severity, Liver / Average lesion severity, Heart / Average lesion severity, Airsac / Average APEC load, Kidney / Average APEC load, Lung / Average APEC load, Heart / Average APEC load, Liver: Table S2; for Mortality rate % (Nr.): PC 88.9 (8/9); for Average lesion severity, Lung: PC 1.11; for Average lesion severity, Liver: PC 2.11; for Average lesion severity, Heart: PC 2.78; for Average lesion severity, Airsac: PC 3.11; for Average APEC load, Kidney: PC 7.84; for Average APEC load, Lung: PC 7.93; for Average APEC load, Heart: PC 8.37; for Average APEC load, Liver: PC 8.46
Text: Chickens were monitored for clinical signs for 8 DPI. Any chickens moribund during this period were humanely euthanized and necropsied to determine bacterial load in the internal organs (liver, heart, lung, and kidney). Internal organs were aseptically collected, weighed and suspended in 1× PBS, the amount of PBS added was adjusted based on the organ size to make a suspension, the organ size and amount of PBS added were included in the final calculation of the CFU. The samples were homogenized, serially diluted 10-fold, plated on MacConkey agar (Remel, CA, USA) containing 50 μg/mL rifampicin, and incubated at 37°C for 24 h to determine the CFU/g. Pathological lesions severity in internal organs (pericarditis, perihepatitis, airsacculitis, and lung congestion) was scored as described previously ([21], [59]). At 8 DPI, the remaining chickens were humanely euthanized and necropsied, lesions were scored, and the APEC load was quantified in internal organs as described above.
One-day-old broiler chickens (n = 10/group) (Case Farms Ohio Hatchery, Strasburg, OH, USA) were used in this experiment. QSI-5 was synthesized in-house in the Fuchs laboratory (College of Pharmacy, OSU) via reductive amination reaction of commercially available 3-phenylpropionaldehyde with 1-(4-methylbenzyl) piperazine in the presence of acetic acid and sodium triacetoxyborohydride (Fig. S4). QSI-5 was administered daily in drinking water containing 0.05% DMSO at doses of 1 mg/L, 5 mg/L, 10 mg/L, and 20 mg/L for seven consecutive days starting from day 4 to day 10 of age. The amount of drinking water given daily was calculated based on the age of chickens (http://www.poultryhub.org/nutrition/nutrient-requirements/water-consumption-rates-for-chickens/). Chickens were infected with Rif^r APEC O78 (5 × 10^6 CFU/chicken) on day 5 as described above. The PC (0.05% DMSO treated and infected) and NC (non-treated and non-infected) control groups were included. The clinical signs and the daily mortality were recorded for 8 DPI. Dead chickens were necropsied, and APEC load was quantified in the internal organs as mentioned above. At 8 DPI, the remaining chickens were necropsied, lesions were scored, and the APEC load was quantified in internal organs as described above.

[2] = QSI-5 and SDM residue quantification in muscle, kidney and liver (LC-MS); type: in vivo, chickens
Description: The safety of QSI-5 and SDM was assessed by measuring the level of drug residue in the muscle, kidney, and liver using LC-MS (CCIC, MS&P Facility, OSU) as described before ([34]). As described above, chickens were administered with the optimized dose of QSI-5 (1 mg/L) and the therapeutic dose of SDM (495.323 mg/L) (0.05%) in drinking water daily for 7 days (starting from day 5 to day 11 of age). Tissue samples were collected individually from chickens treated with QSI-5 and SDM (five chickens per group) from experimental set up as described for floor trial at 2 DPLT, 5 DPLT, and […] (slaughter age). All samples were weighed and extracted at a 400 mg/mL ratio of tissue in the extraction solution (50:50 H2O: ACN). Samples were homogenized using a probe sonicator 20 times and centrifuged at 13,000 × g for 30 min. Sixty μL of the supernatant was transferred into glass vials and dried in a SpeedVac for 1.5 h, and then resuspended in 120 μL of 25:25:50 H2O:ACN:MeOH. Standard calibration, LC system, mass spectrometer, and drug target monitoring were performed as described above. Calibration standard curves for measuring the accumulation of QSI-5 and SDM in the kidney, liver, and muscle are shown in Fig. S6A and S6B.

## Cc1ccc(CN2CCN(CCCc3ccccc3)CC2)cc1 [QSI-5]
[1]; QSI-5 1 mg/L in drinking water 7 days, s/c APEC O78 5 × 10^6 CFU/chicken
  mortality reduction compared with PC group: 58%
[1]; QSI-5 5 mg/L in drinking water 7 days
  mortality reduction compared with PC group: 25%
[1]; QSI-5 10 mg/L in drinking water 7 days
  mortality reduction compared with PC group: 50%
[1]; QSI-5 20 mg/L in drinking water 7 days
  mortality reduction compared with PC group: 25%
[1]; QSI-5 1 mg/L, (3/8)
  Mortality rate % (Nr.): 37.5%
[1]; QSI-5 1 mg/L
  Average lesion severity, Lung: 0.33
  Average lesion severity, Liver: 1.25
  Average lesion severity, Heart: 1.63
  Average lesion severity, Airsac: 1.38
  Average APEC load, Kidney: 5.06 Log CFU/ g of tissue
  Average APEC load, Lung: 5.68 Log CFU/ g of tissue
  Average APEC load, Heart: 5.71 Log CFU/ g of tissue
  Average APEC load, Liver: 5.33 Log CFU/ g of tissue
[1]; QSI-5 5 mg/L, (6/9)
  Mortality rate % (Nr.): 66.6%
[1]; QSI-5 5 mg/L
  Average lesion severity, Lung: 0.38
  Average lesion severity, Liver: 1.33
  Average lesion severity, Heart: 1.89
  Average lesion severity, Airsac: 1.33
  Average APEC load, Kidney: 6.10 Log CFU/ g of tissue
  Average APEC load, Lung: 5.86 Log CFU/ g of tissue
  Average APEC load, Heart: 6.09 Log CFU/ g of tissue
  Average APEC load, Liver: 6.03 Log CFU/ g of tissue
[1]; QSI-5 10 mg/L, (4/9)
  Mortality rate % (Nr.): 44.4%
[1]; QSI-5 10 mg/L
  Average lesion severity, Lung: 0.78
  Average lesion severity, Liver: 2.11
  Average lesion severity, Heart: 2.44
  Average lesion severity, Airsac: 2.33
  Average APEC load, Kidney: 6.20 Log CFU/ g of tissue
  Average APEC load, Lung: 6.37 Log CFU/ g of tissue
  Average APEC load, Heart: 7.32 Log CFU/ g of tissue
  Average APEC load, Liver: 5.84 Log CFU/ g of tissue
[1]; QSI-5 20 mg/L, (6/9)
  Mortality rate % (Nr.): 66.6%
[1]; QSI-5 20 mg/L
  Average lesion severity, Lung: 0.44
  Average lesion severity, Liver: 1.22
  Average lesion severity, Heart: 2.11
  Average lesion severity, Airsac: 1.67
  Average APEC load, Kidney: 6.56 Log CFU/ g of tissue
  Average APEC load, Lung: 6.58 Log CFU/ g of tissue
  Average APEC load, Heart: 6.69 Log CFU/ g of tissue
  Average APEC load, Liver: 6.53 Log CFU/ g of tissue
[2]; 2 DPLT
  Drug accumulation, Kidney (ppm± SD): 0.0 ± 0.0 ppm
  Drug accumulation, Liver (ppm± SD): 0.0 ± 0.0 ppm
[2]; 2 DPLT, drinking water 7 days (QSI-5 1 mg/L, SDM 495.323 mg/L)
  Drug accumulation, Muscle (ppm± SD): 0.0 ± 0.0 ppm
[2]; 5 DPLT
  Drug accumulation, Kidney (ppm± SD): 0.0 ± 0.0 ppm
  Drug accumulation, Liver (ppm± SD): 0.0 ± 0.0 ppm
  Drug accumulation, Muscle (ppm± SD): 0.0 ± 0.0 ppm
[2]; 35 DPLT (slaughter age)
  Drug accumulation, Kidney (ppm± SD): 0.0 ± 0.0 ppm
  Drug accumulation, Liver (ppm± SD): 0.0 ± 0.0 ppm
  Drug accumulation, Muscle (ppm± SD): 0.0 ± 0.0 ppm
